# Where two headings read alike, the source gives them in different places.
# Tests used:
# [1] = Binding constant to heparin determined with the heparin sensor
# Source text: (§1) With the assistance of the heparin sensor and the methodology described previously (Yun et al., 1993), the inventors were able to determine the binding constant of heparin and LMWH to ATIII, protamine, and LMWP.
# [2] = cited from earlier work
# [3] = Immunogenicity in mice, IgG antibody production by ELISA; type: in vivo; details: immunized with 50 μg in CFA plus boosters; ELISA on wells coated with the same species
# Experimental: The immunogenicity of protamine and LMWP was examined in mice. The production of polyclonal antibodies was performed as described (Cooper and Paterson, 1991). Fifteen thin-skinned albino mice, ten for protamine and five for LMWP were included. Each mouse was immunized with 50 μg of either protamine or LMWP in the complete Freund's adjuvant (CFA). Four weeks later, animals were bled and first booster was given with 5 μg of protamine (or LMWP) in incomplete Freund's adjuvant (IFA). Second and third boosters were given at two-week intervals. Afterwards, blood was collected, allowed to clot, and centrifuged to collect serum. All sera were tested for IgG antibodies using a modified ELISA method (Singh et al., 1982). Protamine or LMWP was used to coat the wells of the microplate in order to capture their related antibodies. The detection antibody was goat-antimouse-IgG-alkaline phosphatase that was reacted with p-nitrophenylphosphate to produce the absorbance readings at 405 nm. The antigenicity of LMWP was examined by following the same ELISA method described above but by utilizing a LMWP-coated microplate for antibody detection in the protamine-immunized mice.
# [4] = system: anti-Xa activity of CY216 (LMWH); test: Neutralization of LMWH (CY216) by anti-Xa chromogenic substrate assay; type: biochemical; details: dose of 30 μg
# Experimental: (§2) Heparin neutralization by protamine and LMWP was also measured in plasma by anti-factor Xa chromogenic assay and activated partial thromboplastin time (aPTT) clotting assay (Yang et al., 1986). In brief, for the anti-factor Xa assay, a series of plasma samples containing 0.4 mg of heparin, 15 IU of ATIII, and various amounts of protamine (0-0.8 mg) or LMWP (0-0.4 mg) were prepared. One hundred microliters of the plasma sample were then mixed with 800 μl of Tris-HCl buffer (pH 7.4), followed by the addition of 100 μl of Factor Xa (7.1 nkat/ml). After a 3 min incubation at 37° C., 200 μl of […] substrate (0.5 mg/ml) were added. The reaction mixture was incubated for 5 min at 37° C. and then quenched by the addition of 200 μl of 20% acetic acid. The absorbance in the solution was measured at 405 nm, and the degree of heparin neutralization is proportional to this measured absorbance.
# Neutralization of the anticoagulant functions of both heparin and LMWH by protamine and LMWP is studied in human plasma using the aPTT clotting assay and the chromagenic anti-Xa and anti-IIa assays (Yang et al., 1986). The aPTT values of the test samples, are measured using a fibrometer (Fibrosystem; Becton-Dickinson, Cockeysville, Md.), and the anti-Xa and anti-IIa activities are measured using the chromagenic substrates S-2222 and S-2238, respectively. […]
# [5] = cited from earlier work; remark: listed apart in the source
# [6] = system: anti-Xa activity of heparin; test: Heparin neutralization by anti-factor Xa chromogenic assay; type: biochemical, human; details: heparin 40 μg; half-points of ΔAbs in FIG. 5
# Experimental: as §2
# aPTT activity of heparin = test: Heparin neutralization by aPTT clotting assay; type: biochemical, human; details: heparin 1 mg
# Experimental: For the aPTT clotting assay, 15 μl of heparin solution (20 μg/ml) was mixed with 15 μl of solution containing various concentrations of protamine (0-60 μg/ml) or LMWP species (0-100 μg/ml). To the mixture, 100 μl of actin cephaloplastin and 100 μl of plasma were added. After 3 min of incubation, 100 μl of 0.02 M calcium chloride (preheated to 37° C.) was added and the clotting time was immediately measured using a fibrometer (Fibrosystem, Becton Dickinson Company, Cockeysville, Md.).
# [7] = Binding constant to LMWH determined with the heparin sensor
# Source text: as §1
# [8] = Blood glucose control in streptozotocin-diabetic rats; type: in vivo; details: data from 6 rats
# Experimental: Induction of diabetes in rats was carried out by the injection of streptozotocin at a dose of 45 mg/kg body weight. Diabetes was confirmed 24 h after injection by measuring the tail blood glucose with a Lifescan Glucometer (One Touch II).
Substance,Binding Constant to Heparin [1],Binding Constant to Heparin ([1]; listed as protamine),units of heparin neutralized by each milligram ([2]; heparin derived from bovine lung tissue),units of heparin neutralized by each milligram ([2]; heparin derived from porcine intestinal mucosa),mice with positive reaction for antibodies [3],neutralization of the anti-Xa activity of CY216 [4],pKa [5],dose required for 50% heparin neutralization [6],amount required to completely neutralize the aPTT activity of heparin (aPTT activity of heparin),Binding Constant to LMWH [7],Binding Constant to LMWH ([7]; listed as protamine),overall time span to preserve a low glucose level [8],time required to reach the minimum glucose level [8]
Protamine,89.0 ± 2.0 µM⁻¹,89 µM⁻¹,approximately 90 units,~115 units,4 out of 10 and four out of ten,60%,about 10,7 nmol,~1.7 mg,1.1 ± 0.3 µM⁻¹,1.1 µM⁻¹,,
insulin,,,,,,,,,,,,360 ± 50 min,100 ± 20 min

# Reference: patent US6624141B1, “Protamine fragment compositions and methods of use” (The Regents of The University of Michigan, priority 1999, dated 2003)
